Test results reported in patent US20130084287A1, “DIAGNOSTIC MARKERS” (GENENTECH, INC., priority 2011, published 2013).
Where two headings read alike, the source gives them in different places.

How the values were obtained:
Assay type in all cases: cell-based
NSCLC cell lines [1] = experiment: quantitative PCR of gene expression in 5-aza-dC-treated vs DMSO-treated NSCLC cell lines
Protocol: (§1) Cells were grown in RPMI 1640 supplemented with 10% fetal bovine serum and 2 mM L-Glutamine Cells were seeded on day 0 at 4000-9000 cells/cm2 and dosed with 1 μM 5-aza-2′-deoxycytidine (5-aza-dC) (SIGMA-ALDRICH Cat No. A3656) or DMSO control (Cat No. D2650) on days 1, 3, and 5. On day 6 cells were washed once in cold PBS and harvested by scraping in Trizol (Invitrogen, Cat No 15596018) and extracted for RNA or flash frozen for later RNA extraction. For induction of EMT, cells were plated at 20000-50000 cells/10 cm2 in complete medium and supplemented with 2 ng/mL human transforming growth factor beta 1 (TGFβ1) (R&D Systems, Cat No 100-B/CF) or PBS control. Media and TGFβ1 were replaced every 3 days, and RNA was extracted at 4-5 weeks following TGFβ1 induction of EMT. Gene expression changes were assessed using Taqman assays for the 20-gene EMT panel (FIG. 1).
To evaluate the role of methylation in regulating expression of the genes associated with select DMRs, quantitative PCR was carried out in a panel of 34 5-aza-2′-deoxycytidine (5-aza-dC) and dimethyl sulfoxide-treated NSCLC cell lines. […] From this group of genes, CLDN7 was selected as a representative marker of EMT and its methylation status was quantified by pyrosequencing in an extended panel of 42 cell lines.
In FIG. 5A, quantitative methylation was determined at 7 CpG sites by PyroMark analysis software using the equation: % methylation=(C peak height×100/C peak height+T peak height). Data are represented as the mean±SD percentage of methylation at 7 CpG sites. In FIG. 5B, relative expression of CLDN7 mRNA was determined using a standard ΔCt method in 42 (n=20 epithelial-like, 19 mesenchymal-like, 3 intermediate) DMSO-treated and 5-aza-dC-treated NSCLC cell lines. Expression values were calculated as a fold change in 5-aza-dC-treated relative to DMSO-treated control cells. Data are normalized to the housekeeping gene GAPDH and represented as the mean of 2 replicates. DMSO, dimethyl sulfoxide; GAPDH, glyceraldehyde-3-phosphate dehydrogenase.

NSCLC cell lines [2] = experiment: erlotinib IC50 determination, Celltiter-Glo Luminescent Cell Viability Assay; conditions: for IC50: read-out: erlotinib sensitivity (IC50 class)
Protocol: For erlotinib IC50 determination, cells were plated in quadruplicate at 3×10^2 cells per well in 384-well plates in RPMI containing 0.5% FBS (assay medium) and incubated overnight. 24 hours later, cells were treated with assay medium containing 3 nM TGFα and erlotinib at a dose range of 10 μM-1 pM final concentration. After 72 hrs, cell viability was measured using the Celltiter-Glo Luminescent Cell Viability Assay (Promega). The concentration of erlotinib resulting in 50% inhibition of cell viability was calculated from a 4-parameter curve analysis and was determined from a minimum of two experiments.

NSCLC cell lines [3] = experiment: TGFβ1 induction of EMT, 20-gene EMT expression panel and morphology; conditions: 2 cell lines, 2 ng/mL TGFβ1
Protocol: as §1
2 μl of total RNA was reverse-transcribed to cDNA and pre-amplified in a single reaction using Superscript III/Platinum Taq (Invitrogen) and Pre-amplification reaction mix (Invitrogen). 20 Taqman primer/probe sets selected for the EMT expression panel (FIG. 1) were included in the pre-amplification reaction at a final dilution of 0.05× original Taqman assay concentration (Applied Biosystems). […]
Pre-amplified cDNA was diluted 1.94-fold and then amplified using Taqman Universal PCR MasterMix (Applied Biosystems) on the BioMark BMK-M-96.96 platform (Fluidigm) according to the manufacturer's instructions. […] Two custom-designed reference genes that were previously evaluated for their expression stability across multiple cell lines, fresh-frozen tissue samples, and FFPE tissue samples, AL-1377271 and VPS-33B, were included in the expression panel. A mean of the Ct values for the two reference genes was calculated for each sample, and expression levels of EMT target genes were determined using the delta Ct (dCt) method as follows: Mean Ct (Target Gene)−Mean Ct (Reference Genes). […]

With `Nc1ncn([C@H]2C[C@H](O)[C@@H](CO)O2)c(=O)n1` [5-aza-dC, 5-aza-2′-deoxycytidine] the “induction of CLDN7 expression” value (NSCLC cell lines [1]; majority of the epithelial-like cell lines, 1 μM 5-aza-dC) was “not induced further”, the “induction of GRHL2, ESRP1, and CLDN7 transcripts” value (NSCLC cell lines [1]; mesenchymal-like versus epithelial-like lines, panel of 34 NSCLC cell lines) was “significant induction” and the “induction of CLDN7 expression, fold change in 5-aza-dC-treated relative to DMSO-treated control cells” value (NSCLC cell lines [1]; nearly all mesenchymal-like lines, 1 μM 5-aza-dC, normalized to GAPDH) was over 10 fold.

For `C#Cc1cccc(Nc2ncnc3cc(OCCOC)c(OCCOC)cc23)c1` [erlotinib, [6,7-bis(2-methoxyethoxy)-4-quinazolin-4-yl]-(3-ethynylphenyl) amine], the IC50 (NSCLC cell lines [2]; 6 EGFR-mutant NSCLC cell lines) was at most 2000 nM, the IC50 (NSCLC cell lines [2]; 72 h, RERF-LC-MS cell line, 72 hrs, 3 nM TGFα) was at most 2000 nM and the erlotinib sensitivity (NSCLC cell lines [2]; H1993, MET amplification) was “resistance”. The IC50 (NSCLC cell lines [2]; Homo sapiens, NCI-H838, 72 h, H838 cell line, 72 hrs, 3 nM TGFα) was at most 2000 nM, the IC50 (NSCLC cell lines [2]; Homo sapiens, NCI-H2030, 72 h, H2030 cell line, 72 hrs, 3 nM TGFα) was at most 2000 nM and the IC50 (NSCLC cell lines [2]; Homo sapiens, SK-MES-1, 72 h, SK-MES-1 cell line, 72 hrs, 3 nM TGFα) was at most 2000 nM. The erlotinib sensitivity (NSCLC cell lines [2]; epithelial-like line H1975, T790M mutation in EGFR) was “resistance” and the IC50 (NSCLC cell lines [2]; nearly all mesenchymal-like lines) was at least 8000 nM.

“TGFβ1: human transforming growth factor beta 1 (R&D Systems), used for induction of EMT” was tested, and the morphologic changes (NSCLC cell lines [3]) was “induced morphologic changes associated with an EMT”, the “expression of genes associated with a mesenchymal phenotype” value (NSCLC cell lines [3]; 20-gene EMT panel) was “upregulated” and the “expression of genes associated with an epithelial phenotype” value (NSCLC cell lines [3]; 20-gene EMT panel) was “downregulated”.
